This passage reports MIC and IC50 results from ChEMBL document CHEMBL4602678, “Identification of Holrhizins E-Q Reveals the Diversity of Nonribosomal Lipopeptides in Paraburkholderia rhizoxinica” (J Nat Prod, 2020).

Where a SMILES comes first, the peptide text is derived from it. The star is where a group is joined. Octanoyl = CCCCCCCC(=O)*; Hexanoyl = CCCCCC(=O)* Where only a bound is given, the exact number is not on record here.

Broadly, the MIC is the lowest concentration that inhibits growth of the organism. Higher therefore signals weaker potency. In general, IC50 refers to the concentration that gives 50% inhibition. High values mean lower potency, low ones higher potency.

For one assay, the system named is Bacillus subtilis. Description: Antimicrobial activity against Bacillus subtilis ATCC 6633 incubated for 24 hrs by Kirby-Bauer disk diffusion method. It is filed as functional. The following applies: ATCC 6633, 24 h. For orientation: A growth-free zone around the sample is the usual read-out of agar diffusion tests.
Another assay deals with Rhizoctonia solani. Description: Antimicrobial activity against Rhizoctonia solani incubated for 24 hrs by Kirby-Bauer disk diffusion method. It counts as functional.
For a further assay, the system named is Staphylococcus aureus. In words: Antimicrobial activity against Staphylococcus aureus ATCC 29213 incubated for 24 hrs by Kirby-Bauer disk diffusion method. The settings on record: ATCC 29213, 24 h. It is filed as functional.
The subject of the next assay is Aspergillus fumigatus. In words: Antimicrobial activity against Aspergillus fumigatus incubated for 24 hrs by Kirby-Bauer disk diffusion method. It counts as functional.
The nature of assay [1]: Cytotoxicity against human 2B cells incubated for 2 days by MTT assay. It is filed as cell-based. The following applies: 48 h. In general terms: Formazan colour is commonly taken as a measure of viable cells.
Another assay relates to MDA-MB-231. Description: Cytotoxicity against human MDA-MB-231 cells incubated for 2 days by MTT assay. It counts as functional, cell-based. The following applies: MDA-MB-231, 48 h.
The next assay deals with SGC-7901. Description: Cytotoxicity against human SGC7901 cells incubated for 2 days by MTT assay. It counts as functional, cell-based. The settings on record: SGC-7901, 48 h.
A short description of assay [2]: Cytotoxicity against human Kasumi cells incubated for 2 days by MTT assay. It counts as functional, cell-based. The following applies: 48 h.
A further assay concerns K562. Description: Cytotoxicity against human K562 cells incubated for 2 days by MTT assay. It counts as functional, cell-based. The settings on record: K562, 48 h.
Another assay concerns HepG2. In words: Cytotoxicity against human HepG2 cells incubated for 2 days by MTT assay. It counts as functional, cell-based. The following applies: HepG2, 48 h.
The next assay concerns MCF7. Description: Cytotoxicity against human MCF7 cells incubated for 2 days by MTT assay. It counts as functional, cell-based. The settings on record: MCF7, 48 h.
The next assay has as its system Pseudomonas aeruginosa. In words: Antimicrobial activity against Pseudomonas aeruginosa […] ATCC 27853 incubated for 24 hrs by Kirby-Bauer disk diffusion method. It counts as functional.
A further assay relates to A549. In words: Cytotoxicity against human A549 cells incubated for 2 days by MTT assay. It counts as functional, cell-based. The settings on record: A549, 48 h.
A further assay concerns Candida albicans. Description: Antimicrobial activity against Candida albicans incubated for 24 hrs by Kirby-Bauer disk diffusion method. It counts as functional.
A further assay has as its system HCT-116. Description: Cytotoxicity against human HCT116 cells incubated for 2 days by MTT assay. It is filed as functional, cell-based. The settings on record: HCT-116, 48 h.
In a further assay the test system is Escherichia coli. In words: Antimicrobial activity against Escherichia coli ATCC 35218 incubated for 24 hrs by Kirby-Bauer disk diffusion method. It is filed as functional. The settings on record: ATCC 35218, 24 h.

In the case of `CCCCCC(=O)N[C@H](C(=O)N[C@@H](Cc1ccccc1)C(=O)N[C@@H](CCC(=O)O)C(=O)N[C@@H](CC(C)C)C(=O)N[C@@H](C)C(=O)N[C@@H](CC(C)C)C(=O)O)C(C)C` (Hexanoyl-VFELAL-OH), the MIC against Bacillus subtilis, against Rhizoctonia solani, against Staphylococcus aureus, against Aspergillus fumigatus, in the assay with Pseudomonas aeruginosa and in the assay with Candida albicans was over 100 µM throughout. Also, the MIC with Escherichia coli was over 100 µM. For the same compound, the IC50 (in [1]; with MDA-MB-231; in the assay on SGC-7901; in assay [2]; in the assay with K562; in the assay on HepG2) was over 40 µM throughout. For the same compound, the IC50 in the assay on MCF7, in the assay with A549 and in the assay with HCT-116 was over 40 µM in each case.

Turning to `CCCCCC(=O)N[C@H](C(=O)N[C@@H](Cc1ccccc1)C(=O)N[C@@H](CCC(=O)O)C(=O)N[C@H](C(=O)N[C@@H](C)C(=O)N[C@@H](CC(C)C)C(=O)O)[C@@H](C)CC)C(C)C` (Hexanoyl-VFEIAL-OH), the MIC against Bacillus subtilis, against Rhizoctonia solani, against Staphylococcus aureus, against Aspergillus fumigatus, with Pseudomonas aeruginosa and in the assay on Candida albicans was over 100 µM throughout. This compound returned an MIC against Escherichia coli of over 100 µM. Further, the IC50 (in assay [1]; in the assay on MDA-MB-231; in the assay with SGC-7901; in assay [2]; in the assay on K562; in the assay on HepG2) was over 40 µM in each case. Further, the concentration for half-maximal inhibition (IC50) in the assay with MCF7, with A549 and in the assay with HCT-116 was over 40 µM throughout.

In the case of `CCCCCC(=O)N[C@H](C(=O)N[C@@H](Cc1ccccc1)C(=O)O)C(C)C` (Hexanoyl-Val-Phe-OH), the MIC against Bacillus subtilis, against Rhizoctonia solani, with Staphylococcus aureus, against Aspergillus fumigatus, with Pseudomonas aeruginosa and in the assay on Candida albicans was over 100 µM each time. Besides, the MIC against Escherichia coli is over 100 µM. Moreover, the IC50 (in assay [1]; with MDA-MB-231; in the assay with SGC-7901; in [2]; in the assay with K562; with HepG2) was over 40 µM throughout. The IC50 in the assay with MCF7, in the assay with A549 and in the assay with HCT-116 was over 40 µM throughout.

`CCCCCCCC(=O)N[C@H](C(=O)N[C@@H](Cc1ccccc1)C(=O)N[C@@H](CCC(=O)O)C(=O)N[C@H](C(=O)O)[C@@H](C)CC)C(C)C` (Octanoyl-VFEI-OH): the MIC with Bacillus subtilis, in the assay on Rhizoctonia solani, in the assay on Staphylococcus aureus, with Aspergillus fumigatus, against Pseudomonas aeruginosa and against Candida albicans was over 100 µM each time. The same compound displayed a minimum inhibitory concentration (MIC) against Escherichia coli of over 100 µM. Further, the half-maximal inhibitory concentration (IC50) (in assay [1]; in the assay with MDA-MB-231; in the assay with SGC-7901; in [2]; with K562; in the assay with HepG2) was over 40 µM throughout. For the same compound, the IC50 in the assay on MCF7, in the assay on A549 and in the assay with HCT-116 was over 40 µM each time.

Regarding `CCCCCCCC(=O)N[C@H](C(=O)N[C@@H](Cc1ccccc1)C(=O)N[C@@H](CCC(=O)O)C(=O)N[C@@H](CC(C)C)C(=O)O)C(C)C` (Octanoyl-VFEL-OH), the minimum inhibitory concentration (MIC) in the assay on Bacillus subtilis, against Rhizoctonia solani, with Staphylococcus aureus, in the assay on Aspergillus fumigatus, against Pseudomonas aeruginosa and against Candida albicans was over 100 µM each time. Also, the MIC in the assay on Escherichia coli is over 100 µM. In addition, the IC50 (in assay [1]; with MDA-MB-231; with SGC-7901; in assay [2]; in the assay with K562; with HepG2) was over 40 µM each time. For the same compound, the IC50 with MCF7, in the assay with A549 and in the assay with HCT-116 was over 40 µM in each case.

As to `CCCCCCCC(=O)N[C@H](C(=O)N[C@@H](Cc1ccccc1)C(=O)N[C@@H](CCC(=O)O)C(=O)N[C@@H](CC(C)C)C(=O)N[C@@H](C)C(=O)N[C@H](C(=O)O)[C@@H](C)CC)C(C)C` (Octanoyl-VFELAI-OH), the MIC in the assay on Bacillus subtilis, with Rhizoctonia solani, against Staphylococcus aureus, in the assay on Aspergillus fumigatus, in the assay with Pseudomonas aeruginosa and in the assay with Candida albicans was over 100 µM each time. In the assay on Escherichia coli, the minimal inhibitory concentration (MIC) is over 100 µM. For the same compound, the IC50 (in assay [1]; in the assay on MDA-MB-231; with SGC-7901; in assay [2]; in the assay on K562; with HepG2) was over 40 µM each time. Besides, the IC50 with MCF7, with A549 and with HCT-116 was over 40 µM throughout.

On to `CCCCCCCC(=O)N[C@H](C(=O)N[C@@H](Cc1ccccc1)C(=O)N[C@@H](CCC(=O)O)C(=O)N[C@H](C(=O)N[C@@H](C)C(=O)N[C@H](C(=O)O)[C@@H](C)CC)[C@@H](C)CC)C(C)C` (Octanoyl-VFEIAI-OH), for which the MIC against Bacillus subtilis, against Rhizoctonia solani, against Staphylococcus aureus, in the assay on Aspergillus fumigatus, in the assay on Pseudomonas aeruginosa and against Candida albicans was over 100 µM each time. This compound also gave an MIC with Escherichia coli of over 100 µM. The IC50 (in assay [1]; in the assay with MDA-MB-231; in the assay with SGC-7901; in assay [2]; in the assay on K562; in the assay with HepG2) was over 40 µM each time. For the same compound, the IC50 in the assay on MCF7, in the assay on A549 and in the assay on HCT-116 was over 40 µM in each case.

`CCCCCCCC(=O)N[C@H](C(=O)N[C@@H](Cc1ccccc1)C(=O)N[C@@H](CCC(=O)O)C(=O)N[C@@H](CC(C)C)C(=O)N[C@@H](C)C(=O)N[C@H](C(=O)O)C(C)C)C(C)C` (Octanoyl-VFELAV-OH): the MIC with Bacillus subtilis, against Rhizoctonia solani, in the assay on Staphylococcus aureus, against Aspergillus fumigatus, with Pseudomonas aeruginosa and against Candida albicans was over 100 µM in each case. This compound also came in with an MIC against Escherichia coli of over 100 µM. The IC50 (in assay [1]; with MDA-MB-231; in the assay with SGC-7901; in assay [2]; with K562; in the assay on HepG2) was over 40 µM each time. Also, the IC50 in the assay with MCF7, with A549 and in the assay on HCT-116 was over 40 µM in each case.

In the case of `CCCCCC(=O)N[C@H](C(=O)N[C@@H](Cc1ccccc1)C(=O)N[C@@H](CCC(=O)O)C(=O)N[C@H](C(=O)N[C@@H](C)C(=O)N[C@H](C(=O)O)[C@@H](C)CC)[C@@H](C)CC)C(C)C` (Hexanoyl-VFEIAI-OH), the MIC with Bacillus subtilis, with Rhizoctonia solani, against Staphylococcus aureus, against Aspergillus fumigatus, with Pseudomonas aeruginosa and against Candida albicans was over 100 µM throughout. The compound further had an MIC in the assay with Escherichia coli of over 100 µM. Besides, the 50% inhibitory concentration (IC50) (in assay [1]; in the assay with MDA-MB-231; in the assay on SGC-7901; in assay [2]; in the assay with K562; with HepG2) was over 40 µM each time. In addition, the IC50 in the assay on MCF7, in the assay on A549 and with HCT-116 was over 40 µM each time.

`CCCCCCCC(=O)N[C@H](C(=O)N[C@@H](Cc1ccccc1)C(=O)N[C@@H](CCC(=O)O)C(=O)N[C@H](C(=O)NCC(=O)N[C@H](C(=O)O)[C@@H](C)CC)[C@@H](C)CC)C(C)C` (Octanoyl-VFEIGI-OH): the MIC in the assay on Bacillus subtilis, in the assay on Rhizoctonia solani, in the assay with Staphylococcus aureus, in the assay with Aspergillus fumigatus, in the assay on Pseudomonas aeruginosa and in the assay with Candida albicans was over 100 µM each time. In the assay with Escherichia coli, this compound had an MIC of over 100 µM. Further, the IC50 (in assay [1]; in the assay on MDA-MB-231; with SGC-7901; in [2]; with K562; in the assay on HepG2) was over 40 µM each time. The IC50 in the assay on MCF7, in the assay with A549 and with HCT-116 was over 40 µM each time.

As for `CCCCCCCC(=O)N[C@H](C(=O)N[C@@H](Cc1ccccc1)C(=O)N[C@@H](CCC(=O)O)C(=O)N[C@H](C(=O)N[C@@H](C)C(=O)N[C@H](C(=O)O)C(C)C)[C@@H](C)CC)C(C)C` (Octanoyl-VFEIAV-OH), the MIC in the assay with Bacillus subtilis, against Rhizoctonia solani, in the assay on Staphylococcus aureus, against Aspergillus fumigatus, against Pseudomonas aeruginosa and in the assay on Candida albicans was over 100 µM each time. The compound further had a minimal inhibitory concentration (MIC) against Escherichia coli of over 100 µM. Besides, the IC50 (in assay [1]; in the assay with MDA-MB-231; in the assay with SGC-7901; in [2]; in the assay on K562; in the assay with HepG2) was over 40 µM in each case. The IC50 in the assay on MCF7, in the assay with A549 and in the assay with HCT-116 was over 40 µM in each case.
